Eleven compounds from patent publication US20260137706A1, “METHODS OF TREATING INFLAMMATORY DISEASES” (INTERLINE THERAPEUTICS, INC., priority 2023, published 2026) can be followed below.

Experiment [1] concerns the target T1, GST-RIPK2 fusion protein (human RIPK2, amino acids 1-310) (Homo sapiens, UniProt O43353).
T1 construct: made in house; host or cells: baculovirus infected Sf9 cells
Kind of experiment: RIPK2 binding competition assay (TR-FRET, Tracer 199 displacement). Particulars: 10 nM Tracer 199, 1 nM GST-RIPK2, read-out: RIPK2 IC50. An excerpt: The ability of selected compounds of Formula (I) to inhibit the binding of an Alexa647-labelled ATP-competitive kinase inhibitor to a GST-RIPK2 fusion protein was quantified employing the TR-FRET-based RIPK2 binding competition assay as described in the following paragraphs.
Recombinant fusion protein of N-terminal Glutathione-S-Transferase (GST) and a fragment of human RIPK2 (amino acids 1-310 of accession number 043353), expressed in baculovirus infected Sf9 cells, purified via glutathione affinity chromatography, was used as GST-RIPK2 fusion protein. Tracer 199 from Life Technologies (catalogue no. PR9115B) was used as Alexa647-labelled ATP-competitive kinase inhibitor.
For the assay, 50 nL of a 100-fold concentrated solution of each test compound in DMSO was pipetted into either a black low volume 384-well microtiter plate or a black 1536-well microtiter plate (both Greiner Bio-One, Frickenhausen, Germany), 3 μL solution of Tracer 199 (16.7 nM=>final concentration in 5 μL assay volume is 10 nM) in aqueous assay buffer (25 mM Tris/HCl pH 7.5, 10 mM magnesium chloride (MgCl2), 5 mM β-glycerophosphate, 2.5 mM dithiothreitol (DTT), 0.5 mM ethylene glycol-bis(2-aminoethylether)-N,N,N′,N′-tetraacetic acid (EGTA), 0.5 mM sodium ortho-vanadate, 0.01% (w/v) bovine serum albumin (BSA), 0.005% (w/v) Pluronic F-127 (Sigma)) were added. Then the binding competition was started by the addition of 2 μL of a solution of the GST-RIPK2 fusion protein (2.5 nM=>final conc. in the 5 μL assay volume is 1 nM) and of Anti-GST-Tb (1.25 nM=>final conc. in the 5 μL assay volume is 0.5 nM), a Lumi4®—Tb cryptate-conjugated anti-GST antibody from PerkinElmer (catalogue no 61GSTTAH), in assay buffer.
The resulting mixture was incubated 45 min at 22° C. to allow the formation of a complex between the Tracer 199, the fusion protein and Anti-GST-Tb. Subsequently, the amount of this complex was evaluated by measurement of the resonance energy transfer from the Tb-cryptate to the Tracer 199. Therefore, the fluorescence emissions at 620 nm and 665 nm after excitation at 337 nm were measured in a TR-FRET reader, e.g. a Pherastar FS (BMG Labtechnologies, Offenburg, Germany) or a Viewlux (PerkinElmer). The ratio of the emissions at 665 nm and at 620 nm was taken as the measure of the amount of the complex. The data were normalized (assay reaction without inhibitor=0% activity, all other assay components but no GST-RIPK2 fusion protein=−100% activity).
Table A1 below lists IC50 values of selected compounds of Formula (I) measured in the RIPK2 binding competition assay.

Experiment [2] deals with T2, binding of His-XIAP(BIR2)-avi fusion protein to GST-RIPK2 fusion protein (RIPK2/XIAP) (Homo sapiens, UniProt O43353).
T2 construct: made in house; host or cells: baculovirus infected Sf9 cells
Kind of experiment: RIPK2-XIAP binding competition PPI assay (TR-FRET). As to conditions: for Emax: read-out: PPI Amax bin; for pIC50: read-out: PPI IC50 bin. An excerpt: The ability of selected compounds of Formula (I) to inhibit the binding of an His-XIAP(BIR2)-avi fusion protein to a GST-RIPK2 fusion protein was quantified employing the TR-FRET-based competition assay as described in the following paragraphs.
Recombinant fusion protein of N-terminal Glutathione-S-Transferase (GST) and a fragment of human RIPK2 (amino acids 1-310 of accession number 043353), expressed in baculovirus infected Sf9 cells, purified via glutathione affinity chromatography, was used as GST-RIPK2 fusion protein. Recombinant fusion protein of N-terminal 6×Histidine (His), a fragment of human XIAP (amino acids 152-231 of accession number P98170), and C-terminal avi tag, expressed in baculovirus infected Sf9 cells, purified via Nickel NTA affinity chromatography, was used as the His-XIAP(BIR2)-avi fusion protein.
For the assay, a working solution of 1 nM GST-RIPK2, 25 nM His-XIAP(BIR2)-avi, 6 nM Anti-His-XL665 […] (Revvity Catalogue No. 61HISXLB), and 0.5 nM Anti-GST-Tb (Revvity Catalogue No. 61GSTTLB) in 25 mM Tris-HCl 7.5, 0.5 mM ethylene glycol-bis(2-aminoethylether)-N,N,N′,N′-tetraacetic acid (EGTA), 10 mM magnesium chloride (MgCl2), 2.5 mM dithiothreitol (DTT), 0.01% (w/v) bovine serum albumin (BSA), 0.005% (w/v) Pluronic F-127 (Sigma), 0.5 mM sodium ortho-vanadate, 5 mM β-Glycerophosphate disodium salt hydrate (BGP) was prepared. 50 nL of a 100-fold concentrated solution of each test compound in DMSO was dispensed via acoustic dispensing into a white low volume 384-well microtiter plate (Perkin Elmer Catalogue No. 6008280). Subsequently, 5 μL of the assay working solution were added.
The resulting mixture was incubated 120 min at 23° C. Subsequently, the amount of complex formed by the GST-RIPK2, XIAP(BIR2)-avi, Anti-His-XL665, and Anti-GST-Tb was evaluated by measurement of the resonance energy transfer from the Tb-cryptate to the XL665. Therefore, the fluorescence emissions at 520 nm and 665 nm after excitation at 337 nm were measured in a TR-FRET reader, e.g. a Pherastar FS (BMG Labtechnologies, Offenburg, Germany) or an Envision (PerkinElmer). The ratio of the emissions at 665 nm and at 520 nm was taken as the measure of the amount of the complex. The data were normalized (assay reaction without inhibitor=0% activity, 50 nM of GSK583=−100% activity).
For the RIPK2/XIAP binding competition PPI assay Amax values, “A” denotes an Amax of ≥80%; “B” denotes an Amax of 80%>B≥55; “C” denotes an Amax of 55%>C>30; and “D” denotes an Amax of ≤30%.
(In general: TR-FRET usually uses a lanthanide donor and a delayed reading to cut background.)

The subject of experiment [3] is NF-κB pathway (SEAP) in THP1-Dual cells. Kind of experiment: THP-1 Dual cell SEAP assay (L18-MDP stimulated). Type of experiment: cell-based. As to conditions: Homo sapiens, THP1-Dual, read-out: NF-κB THP1 IC50 bin. How it is done: THP1-Dual™ cells (InvivoGen Cat #thpd-nfis) allow simultaneous assessment of the NF-κB pathway, by monitoring the activity of secreted embryonic alkaline phosphatase (SEAP) as well as the IRF pathway, by assessing the activity of a secreted luciferase (Lucia). Cells were cultured according to manufacturers' recommendations. For the assay, cell concentration was adjusted to 7.14×10^5 cells/mL in assay media (RPMI 1640, 2 mM L-Glutamine, 25 mM HEPES, 10% fetal bovine serum (heat-inactivated for 30 min at 56° C.), Pen-Strep (100 U/mL)) and 35 µL of cell suspension (˜25,000 cells) per well were added to a flat bottom 384-well plate (white opaque). Plate was centrifuged at 300 g for 2 min, compounds were added in serial dilution series according to the plate layout (volumes ˜500 nL-0.0152 nL) and plate was incubated at 37° C. in 5% CO2 for 30 min. Using assay media, a L18-MDP stock solution, that results in a final concentration of 10 ng/mL L18-MDP in each well when adding 15 μL to each well, was prepared. 15 μL of L18-MDP stock solution was added to each well, while 15 μL of assay media was added to the negative control wells. Plates were subsequently incubated at 37° C. in 5% CO2 overnight (20-24 h).
For the SEAP assay: without disturbing the cells at the bottom of the well, 15 μL supernatant was transferred to a clear 384-well flat bottom plate and 35 μL QUANTI-Blue Solution per well was added. Following a 2 h incubation at 37° C., the optical density (OD) was measured at 620-655 nm using a microplate reader (PheraStar FS microplate reader with protocol for OD 620-655 nm).
Values of media-only wells were subtracted and % inhibition for each compound concentration relative to the DMSO/L18-MDP-treated controls was calculated. Inhibition values+/−SD were fitted by non-linear regression using Prism software (GraphPad PRISM Software) to calculate IC50 values.

Setting [4] is: RIPK2/XIAP binding competition PPI assay, Amax.
Setting [5] is: RIPK2/XIAP binding competition PPI assay.

pIC50: −log10 of the molar value. Like-named read-outs stand apart in the source and are kept apart here.

T2 sequence (O43353 1-310 limits assumed): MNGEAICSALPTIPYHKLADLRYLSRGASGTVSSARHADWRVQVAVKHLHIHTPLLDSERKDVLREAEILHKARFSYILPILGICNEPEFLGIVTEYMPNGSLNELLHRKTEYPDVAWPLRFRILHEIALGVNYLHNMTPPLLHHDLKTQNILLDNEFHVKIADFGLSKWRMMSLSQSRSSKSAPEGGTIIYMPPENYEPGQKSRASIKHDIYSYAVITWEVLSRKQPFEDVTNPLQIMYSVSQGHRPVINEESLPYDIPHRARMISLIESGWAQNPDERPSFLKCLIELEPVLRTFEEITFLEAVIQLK
T1 sequence (O43353 1-310): as the sequence (O43353 1-310 limits assumed) above

With `CCCS(=O)(=O)Nc1cc(-c2cnc3cc(OC)c(S(=O)(=O)C(C)(C)CO)cn23)cc(OC)c1OC` [Example 59, N-(5-(6-((1-hydroxy-2-methylpropan-2-yl)sulfonyl)-7-methoxyimidazo[1,2-a]pyridin-3-yl)-2,3-dimethoxyphenyl)propane-1-sulfonamide], the negative logarithm of the IC50 (pIC50) (commonly the negative decadic logarithm of the IC50, by convention in mol/L) is greater than 9.00 in experiment [1], greater than 9.00 in experiment [2] (setting [5]) and greater than 7.30 in experiment [3]. The Emax in experiment [2] (setting [4]) was greater than 80%.
Consider `COc1cc2ncc(-c3cc(F)c(N)nc3F)n2cc1P1(=O)CCN(C)CC1` [Example 79, 4-(3-(6-amino-2,5-difluoropyridin-3-yl)-7-methoxyimidazo[1,2-a]pyridin-6-yl)-1-methyl-1,4-azaphosphinane 4-oxide], for which the values for the pIC50 in experiment [1], in experiment [2] (setting [5]) and in experiment [3] were less than 7.70, less than 7.70 and less than 6.00, respectively. The Emax in experiment [2] (setting [4]) was greater than 80%.
As for `Cn1ccc(-c2cc3ncc(-c4cc(F)c(N)nc4F)n3cc2S(=O)(=O)C(C)(C)C)n1` [Example 27, 5-(6-(tert-butylsulfonyl)-7-(1-methyl-1H-pyrazol-3-yl)imidazo[1,2-a]pyridin-3-yl)-3,6-difluoropyridin-2-amine], the negative logarithm of the IC50 (pIC50) in experiment [1] was less than 7.70; in experiment [2] (setting [5]), less than 7.70; in experiment [3], less than 6.00. For the same compound, in experiment [2] (setting [4]), the Emax is greater than 80%.
Regarding `CC(C)(C)S(=O)(=O)c1cn2c(-c3cc(F)c(N)nc3F)cnc2cc1OCCO` [Example 12, 2-((3-(6-amino-2,5-difluoropyridin-3-yl)-6-(tert-butylsulfonyl)imidazo[1,2-a]pyridin-7-yl)oxy)ethan-1-ol], the pIC50 in experiment [1] is 7.70 to 8.60; in experiment [2] (setting [5]), 7.70 to 8.60; in experiment [3] it was 6.60 to 7.30. Besides, the Emax in experiment [2] is greater than 80%.
Consider `CC(C)(C)C(C)(O)c1cn2c(-c3cc(F)c(N)nc3F)cnc2cc1OCCO` (stereo not drawn) [Example 193, 2-(3-(6-amino-2,5-difluoropyridin-3-yl)-7-(2-hydroxyethoxy)imidazo[1,2-a]pyridin-6-yl)-3,3-dimethylbutan-2-ol], for which the pIC50 in experiment [1] was 7.70 to 8.60. Besides, the Emax in experiment [2] (setting [4]) was greater than 80%.
Regarding `COc1cc2nc(Cl)c(-c3ccc(N)nc3F)n2cc1S(=O)(=O)C(C)(C)C` [Example 10, 5-(6-(tert-butylsulfonyl)-2-chloro-7-methoxyimidazo[1,2-a]pyridin-3-yl)-6-fluoropyridin-2-amine], the negative-log IC50 (pIC50) in experiment [1] and in experiment [2] (setting [5]) was less than 7.70 each time. Besides, the Emax in experiment [2] (setting [4]) is greater than 80%.
With `CC(C)(C)S(=O)(=O)c1cn2c(-c3cc(F)c(N)nc3F)cnc2cc1NCCO` [Example 272, 2-((3-(6-amino-2,5-difluoropyridin-3-yl)-6-(tert-butylsulfonyl)imidazo [1,2-a]pyridin-7-yl)amino)ethan-1-ol], in experiment [2] (setting [4]), the Emax was greater than 80%. Besides, the pIC50 in experiment [2] (setting [5]) is 8.60 to 9.00; in experiment [3] it was 6.60 to 7.30.
As for `COc1cc(NS(=O)(=O)c2cnn(C)c2)cc(-c2cnc3cc(OC)c(S(=O)(=O)C(C)(C)C)cn23)c1` [Example 285, N-(3-(6-(tert-butylsulfonyl)-7-methoxyimidazo[1,2-a]pyridin-3-yl)-5-methoxyphenyl)-1-methyl-1H-pyrazole-4-sulfonamide], the Emax in experiment [2] (setting [4]) is greater than 80%. The pIC50 in experiment [2] (setting [5]) is greater than 9.00; in experiment [3], greater than 7.30.
With `COc1cc2ncc(-c3cc(F)c(OC)c(NS(=O)(=O)c4cn[nH]c4)c3)n2cc1S(=O)(=O)C(C)(C)C` [Example 140, N-(5-(6-(tert-butylsulfonyl)-7-methoxyimidazo[1,2-a]pyridin-3-yl)-3-fluoro-2-methoxyphenyl)-1H-pyrazole-4-sulfonamide], the Emax in experiment [2] (setting [4]) is greater than 80%. The values for the negative-log IC50 (pIC50) in experiment [2] (setting [5]) and in experiment [3] were greater than 9.00 and greater than 7.30, respectively.
With `COc1cc2ncc(-c3cccc(NS(=O)(=O)c4cnn(C)c4)c3)n2cc1S(=O)(=O)C(C)(C)C` [Example 294, N-(3-(6-(tert-butylsulfonyl)-7-methoxyimidazo[1,2-a]pyridin-3-yl)phenyl)-1-methyl-1H-pyrazole-4-sulfonamide], the Emax in experiment [2] (setting [4]) is greater than 80%. Besides, the results for the pIC50 in experiment [2] (setting [5]) and in experiment [3] were greater than 9.00 and 6.60 to 7.30, respectively.
As for `CCS(=O)(=O)Nc1cc(-c2cnc3cc(OC[C@H](C)O)c(S(=O)(=O)C(C)(C)C)cn23)cc(F)c1OC` [Example 270, (S)-N-(5-(6-(tert-butylsulfonyl)-7-(2-hydroxypropoxy)imidazo[1,2-a]pyridin-3-yl)-3-fluoro-2-methoxyphenyl) ethanesulfonamide], the Emax in experiment [2] (setting [4]) lay in the range of 55 to 80%. The pIC50 in experiment [2] (setting [5]) was greater than 9.00; in experiment [3], greater than 7.30.
